Test system: strobilurin resistant strain of Plasmopara viticola
Assay: cross-resistance test on small vine plants in the glasshouse

## COC(=O)CNC(=O)/C=C\C/C=C\NC(=O)/C=C(C)/C=C/[C@H](C)[C@H](OC)[C@H](C)[C@H](/C=C/c1ccccc1)OC [Compound 8, crocacin A]
  cross-resistance to strobilurin resistant Plasmopara viticola: little or no cross-resistance

Source: publication PMC2784635 (Bioorganic & medicinal chemistry, 2008)
